From paper PMC12389415, “Killer Peptide-Containing Polyelectrolytic Nanocomplexes to Fight Toxoplasma gondii Infection” (Pharmaceutics, 2025)
Read-outs that look alike come from different tables or passages of the source. Where a SMILES comes first, the peptide text is derived from it.

Assays:
[1] = Procedure: Before formulation, peptide solubility and gelation properties were evaluated by dispersing the powder in different solvents, namely ultrapure water, phosphate-buffered saline, ethanol, methanol, or isopropanol, to evaluate its solubility and gelation properties and select the more appropriate formulative approach by microfluidics.
The solubility of KP and the flowability of the resulting solution are critical elements for microfluidic processing, since viscous solutions cannot be used, as they alter laminar flow conditions or clog the chip’s channels. For this reason, common solvents were screened to select those providing the highest solubility, to prevent spontaneous precipitation of the peptide, without neglecting their acceptability from the toxicological point of view.

[2] = system: T. gondii free tachyzoites; experiment: Free tachyzoites exposure, parasite quantification by real-time PCR (B1 gene); type: cell-based, Toxoplasma gondii
Procedure: Additionally, the same experiment was performed in duplicate to extract DNA for subsequent quantification of the parasite using real-time PCR CFX96™ Biorad® (version 3.1) (without using coverslips in the wells). The protocol by Santoro et al., amplifying the target B1 gene using Taqman technology, was optimized by defining the appropriate annealing temperature and amplification cycles. A standard curve for quantification was generated using T. gondii RH-WT grown in HFF cells, to ensure consistency in the results. DNA was extracted with the commercial kit Invitrogen PureLink™ Genomic DNA Mini Kit (Thermo Fisher Scientific, Waltham, Massachusetts, USA) from infected cells (control/treatment) 48 h after seeding, and it was used for amplification of the B1 gene.
The resulting product was loaded onto an agarose gel, and the corresponding band was excised for DNA quantification (12.3 ng/µL). From this, the number of copies per µL (1.1 × 10^11) was calculated using Copy Number Calculator (accessed on 11 April 2025)), and a standard curve was generated via serial dilutions (starting from a concentration of 10^8 copies of DNA/µL down to 10^2 copies of DNA/µL). Each condition was tested in four wells; three independent experiments were conducted.

[3] = system: T. gondii β-gal-RH (Type I) intracellular tachyzoites in HFFs; experiment: Toxo-β-gal assay, post-infection model (intracellular parasites); type: cell-based, Toxoplasma gondii; settings: dose-response, 48 h
Procedure: T. gondii β-gal-RH (Type I) is a genetically modified strain constitutively expressing β-galactosidase under the control of the promoter SAG1 (constitutive promoter). Susceptibility of T. gondii β-gal to the tested compounds was assessed by determining IC50 values based on β-galactosidase assay, as described by Păunescu et al. Briefly, HFFs (5 × 10^3/well) were seeded into 96-well plates, and once confluent, 200 µL of a suspension of parasites prepared in DMEM + 10% FBS at the concentration of 7.5 × 10^4/mL was added to each well resulting in 1.5 × 10^4 parasites per well.
Plates were incubated for 48 h 37 °C, 5% CO2, then cultures were washed once with 200 μL/well of PBS 1×. […] In total, 10 μL of 5 mM chlorophenol red-β-D-galactopyranoside (CPRG) was added to each well, and the reaction was monitored until saturation (usually reached in 30 min) by repeatedly measuring absorbance at 570 nm. The values obtained from the initial readings were subtracted from the respective final readings, and from these, the averages of each group were calculated. This was followed by calculation of the standard deviation and the calculation of percentage (normalized) absorbance, which was obtained from a ratio between the mean of the treatments and the mean of the negative control (DMEM 10% FBS), multiplied by 100. […]

[4] = supplier data; ref Thermo Scientific; cited from earlier work
Description: Killer peptide ([…], MW: 998.2, isoelectric point: 8.97) was acquired from Thermo Scientific (Rockford, IL, USA). Sodium hyaluronate (Hyal, MW: 15–30 kDa) was obtained from Contipro (Praha, Czech Republic). Chitosan (Chito, MW: 66 kDa, degree of deacetylation: 96%) was from Primex (Siglufjordur, Iceland). Acetic acid was from Merck. Ultrapure (UP) water was obtained by inverse osmosis using an Arium Comfort® system by Sartorius (Gottingen, Germany). Solvents and reagents were from Avantor, VWR, unless otherwise specified. Resazurin and chlorophenol red-β-D-galactopyranoside (CPRG) were ...

[5] = Stability of free KP and KP-NPs under stress conditions (60 °C, acid, alkali); settings: 2 h, Micro BCA
Procedure: Moreover, KP-NPs were exposed to harsh conditions, to assess the ability of the formulation to protect KP from environmental degradation. […] These three samples were exposed to high temperatures (60 °C) for 2 h, then particle size and KP content were evaluated as described above.
To further assess the stability of KP-NPs and their potential protective effect on KP, both free KP and KP-NPs were subjected to harsh stress conditions, namely high temperature (60 °C) and strong acidic or alkaline environment (0.1 M HCl or NaOH) for two hours. […] As for nanoparticles, particle size was checked (Table 3), and the amount of KP released quantified.

[6] = system: intracellular tachyzoites of T. gondii; settings: in vitro; cited from earlier work
Description: From a parasitological point of view, the fact that the nanoparticles developed here are effective against T. gondii, also without KP, is very intriguing and represents a novel finding. In fact, to the best of our knowledge, no literature describes a parasiticidal role of hyaluronate; while some studies have investigated the parasiticidal activity of chitosan-based nanoparticles, this was limited to the extracellular form or fre ...

[7] = real-time PCR B1 gene, 48 h, KP 250 µg/mL or corresponding NPs

CSCC[C@H](NC(=O)[C@@H](NC(=O)[C@@H](NC(=O)[C@H](CCCCN)NC(=O)[C@H](C)N)C(C)C)[C@@H](C)O)C(=O)N[C@H](C(=O)N[C@@H](CS)C(=O)N[C@@H](CO)C(=O)N[C@@H](C)C(=O)N[C@@H](CO)C(=O)O)[C@@H](C)O [KP] (H-AKVTMTCSAS-OH; N-terminus and C-terminus assumed)
Sol-gel transition kinetics in water ([1]; KP 3.5 mg/mL, room temperature): over the course of two days
Sol-gel transition kinetics in water ([1]; KP 5 mg/mL): almost instantaneous
Gelation in ethanol ([1]; after dissolution at 2 mg/mL): almost immediate transition, leading to the formation of a thick gel
Solubility in ethanol ([1]; at least up to): ≥ 2 mg/mL
Solubility in PBS ([1]; phosphate-buffered saline): practically insoluble
Solubility in acetone ([1]; powder dispersed in solvent): practically insoluble
Solubility in isopropanol ([1]; powder dispersed in solvent): practically insoluble
Solubility in methanol ([1]; verified up to): ≥ 2 mg/mL
% Reduction Rate (parasite load) ([2]; compared to the control (DMEM), KP 250 µg/mL or corresponding NPs): 94.6%
Log SQ [2, 7]: 3.741
SQ Mean [2, 7]: 6041
Cq Mean ([2]; real-time PCR B1 gene, DNA extracted 48 h after seeding, KP 250 µg/mL or corresponding NPs): 28.17
FC ([2]; vs DMEM control): 0.072
ΔCq ([2]; vs DMEM control): 3.80
Efficacy against intracellular T. gondii (in words) [3]: did not exhibit any efficacy
isoelectric point [4]: 8.97
Recovery of peptide after stress ([5]; acidic conditions (0.1 M HCl), 60 °C): full recovery
Peptide degraded after stress ([5]; alkaline conditions (0.1 M NaOH), 60 °C): approximately 20%
Recovery of peptide after stress ([5]; high temperature (60 °C)): full recovery

spiramycin
IC50 [6]: 218 µg/mL
